{"source": "patent US20100056627A1", "about": "“PHARMACEUTICAL COMPOSITIONS OF ALKYL GALLATES” (priority 2006, published 2010)", "key": {"[1]": {"test_system": "gram-positive and gram-negative bacteria", "assay": "MIC (minimum growth inhibition concentration), 2-fold serial agar plate dilution on Mueller Hinton II Agar, with concomitant alkyl gallate and salt", "conditions": "n-heptyl, n-hexyl, n-pentyl, n-butyl, isobutyl or n-propyl gallate at a concentration equal to or less than MIC"}, "[2]": {"test_system": "Pseudomonas aeruginosa POA1", "assay": "Antimicrobial action (MIC) of lauryl gallate with isoamyl gallate or propyl gallate in 3% NaCl", "type": "cell-based", "conditions": "for MIC: Pseudomonas aeruginosa, P. aoruginosa PAO1, MHA (3% NaCl)"}, "influenza virus": {"test_system": "influenza virus", "assay": "Influenza virucidal activity of n-dodecyl gallate with n-hexyl gallate or n-butyl gallate (FIG. 3)", "type": "cell-based", "excerpt": "FIG. 3 is a graph showing reinforcement of the influenza virucidal activity of n-dodecyl gallate by n-hexyl gallate and n-butyl gallate. The abscissa axis indicates the concentrations of n-dodecyl gallate.\nThe open circle in FIG. 3 indicates an influenza virucidal effect of dodecyl gallate alone."}, "clinical isolate MRSA": {"test_system": "clinical isolate MRSA", "assay": "Oxacillin MIC against MRSA with concomitant octyl gallate and short-chain alkyl gallate (β-lactam sensitivity, ILSMR effect)", "type": "cell-based, Staphylococcus aureus", "conditions": "Staphylococcus aureus, MRSA, 24 h, Isoamyl G 25 μg/mL; Octyl G 1.5625 μg/mL"}, "[3]": {"test_system": "Candida albicans ATCC 10231", "assay": "Time required for killing mold, octyl gallate and propyl gallate (FIG. 2)", "type": "cell-based", "conditions": "Candida albicans ATCC 10231, FIG. 2", "excerpt": "FIG. 2 is a graph showing shortening of the time required for killing mold by the concomitant use of octyl gallate and propyl gallate against Candida albicans ATCC 10231."}, "herpes virus (HSV-1)": {"test_system": "herpes virus (HSV-1)", "assay": "Virucidal activity against HSV-1 (Tables 14, 15, FIG. 5)", "type": "cell-based"}, "[4]": {"test_system": "influenza virus A/Aichi (H3N2)", "assay": "Virucidal activity against influenza virus A/Aichi (H3N2) (Table 16)", "conditions": "Table 16, NaCitrate 0.90%"}, "influenza virus B/T/1/05": {"test_system": "influenza virus B/T/1/05", "assay": "Time course of virucidal activity at 37° C., infectivity by plaque assay in MDCK cells (FIGS. 6 to 12)", "type": "cell-based", "conditions": "influenza B/T/1/05, FIGS. 6 and 8", "method": "The experiments in FIGS. 7 to 12 were carried out at 37° C. The infectivity of viruses was determined using MDCK cells by the plaque assay method.\nThis virucidal activity of octyl gallate was reinforced by propyl gallate also against influenza virus A/Aichi (H3N2) in the same manner as above."}, "MRSA COL strain": {"test_system": "MRSA COL strain", "assay": "Time required for killing bacteria, octyl gallate and propyl gallate (FIG. 1)", "type": "cell-based, Staphylococcus aureus", "excerpt": "FIG. 1 is a graph showing shortening of the time required for killing bacteria by the concomitant use of octyl gallate and propyl gallate against MRSA COL strain."}}}
{"smiles": "CCCCCCCCCCCCOC(=O)c1cc(O)c(O)c(O)c1", "note": "[dodecyl gallate, n-dodecyl gallate]", "values": [{"measurement": "change of MIC value by addition of shorter-chain alkyl gallate", "setting": "[1]", "value": "decreased"}, {"measurement": "MIC", "setting": "[2]; PAO1, 24 h, concomitant none, 24 h", "value": 15.6, "unit": "µg/mL"}, {"measurement": "MIC", "setting": "[2]; PAO1, 48 h, concomitant none, 48 h", "value": 31.2, "unit": "µg/mL"}, {"measurement": "MIC", "setting": "[2]; PAO1, 48 h, isoamyl gallate 50 μg/mL, 48 h", "value": 3.91, "unit": "µg/mL"}, {"measurement": "MIC", "setting": "[2]; PAO1, 48 h, isoamyl gallate 75 μg/mL, 48 h", "value": 0.977, "unit": "µg/mL"}, {"measurement": "MIC", "setting": "[2]; PAO1, 48 h, propyl gallate 75 μg/mL, 48 h", "value": 0.488, "unit": "µg/mL"}, {"measurement": "antimicrobial action of lauryl gallate", "setting": "[2]; isoamyl gallate or propyl gallate in the presence of 3% NaCl (Table 6)", "value": "reinforced"}, {"measurement": "virucidal effect of dodecyl gallate", "setting": "influenza virus; addition of butyl gallate at a concentration without virucidal effect", "value": "reinforced markedly"}, {"measurement": "dodecyl gallate concentration at which no survivor was observed", "setting": "influenza virus; coexistence of 100 μg/ml of hexyl gallate", "value": 20, "unit": "µg/mL"}]}
{"smiles": "CCCCCCCCCCOC(=O)c1cc(O)c(O)c(O)c1", "note": "[n-decyl gallate]", "values": [{"measurement": "change of MIC value by addition of shorter-chain alkyl gallate", "setting": "[1]", "value": "decreased"}]}
{"smiles": "CCCCCCCCCOC(=O)c1cc(O)c(O)c(O)c1", "note": "[n-nonyl gallate]", "values": [{"measurement": "change of MIC value by addition of shorter-chain alkyl gallate", "setting": "[1]", "value": "decreased"}]}
{"smiles": "CCCCCCCCCCCOC(=O)c1cc(O)c(O)c(O)c1", "note": "[n-undecyl gallate]", "values": [{"measurement": "change of MIC value by addition of shorter-chain alkyl gallate", "setting": "[1]", "value": "decreased"}]}
{"smiles": "Cc1onc(-c2ccccc2)c1C(=O)N[C@@H]1C(=O)N2[C@@H]1SC(C)(C)[C@@H]2C(=O)O", "note": "[oxacillin, reference compound]", "values": [{"measurement": "MIC", "setting": "clinical isolate MRSA", "value": 0.125, "unit": "µg/mL"}]}
{"smiles": "CCCOC(=O)c1cc(O)c(O)c(O)c1", "note": "[propyl gallate]", "values": [{"measurement": "fungicidal activity alone", "setting": "[3]", "value": "low"}, {"measurement": "No of plaques", "setting": "herpes virus (HSV-1); Table 14, octyl gallate 0, propyl gallate 300 mg/L, J1816 90 mg/L, Na3citrate 0.90%", "value": 0}, {"measurement": "No of plaques", "setting": "herpes virus (HSV-1); Table 14, propyl gallate 100 mg/L, J1816 30 mg/L, Na3citrate 0.90%", "value": 0}, {"measurement": "No of plaques", "setting": "herpes virus (HSV-1); Table 14, propyl gallate 200 mg/L, J1816 60 mg/L, Na3citrate 0.90%", "value": 0}, {"measurement": "No of plaques", "setting": "herpes virus (HSV-1); Table 14, propyl gallate 300 mg/L, J1816 90 mg/L, Na3citrate 0.90%", "value": 0}, {"measurement": "No of plaques", "setting": "herpes virus (HSV-1); Table 14, propyl gallate 400 mg/L, J1816 120 mg/L, Na3citrate 0.90%", "value": 0}, {"measurement": "No of plaques", "setting": "herpes virus (HSV-1); Table 14, propyl gallate 500 mg/L, J1816 150 mg/L, Na3citrate 0.90%", "value": 0}, {"measurement": "No of plaques", "setting": "herpes virus (HSV-1); Table 15, octyl gallate 0, propyl gallate 300 mg/L, J1816 0, NaCitrate 0.90%", "value": 137}, {"measurement": "No of plaques", "setting": "herpes virus (HSV-1); Table 15, propyl gallate 100 mg/L, J1816 0, NaCitrate 0.90%", "value": 192}, {"measurement": "No of plaques", "setting": "herpes virus (HSV-1); Table 15, propyl gallate 200 mg/L, J1816 0, NaCitrate 0.90%", "value": 139}, {"measurement": "No of plaques", "setting": "herpes virus (HSV-1); Table 15, propyl gallate 300 mg/L, J1816 0, NaCitrate 0.90%", "value": 162}, {"measurement": "No of plaques", "setting": "herpes virus (HSV-1); Table 15, propyl gallate 400 mg/L, J1816 0, NaCitrate 0.90%", "value": 102}, {"measurement": "No of plaques", "setting": "herpes virus (HSV-1); Table 15, propyl gallate 500 mg/L, J1816 0, NaCitrate 0.90%", "value": 130}, {"measurement": "No of plaques", "setting": "[4]; octyl gallate 0, propyl gallate 300 mg/L, J1816 90 mg/L", "value": 52}, {"measurement": "No of plaques", "setting": "[4]; propyl gallate 100 mg/L, J1816 30 mg/L", "value": 84}, {"measurement": "No of plaques", "setting": "[4]; propyl gallate 200 mg/L, J1816 60 mg/L", "value": 87}, {"measurement": "No of plaques", "setting": "[4]; propyl gallate 300 mg/L, J1816 90 mg/L", "value": 53}, {"measurement": "No of plaques", "setting": "[4]; propyl gallate 400 mg/L, J1816 120 mg/L", "value": 47}, {"measurement": "No of plaques", "setting": "[4]; propyl gallate 500 mg/L, J1816 150 mg/L", "value": 42}, {"measurement": "virucidal activity alone", "setting": "influenza virus B/T/1/05", "value": "low"}, {"measurement": "bactericidal activity alone", "setting": "MRSA COL strain", "value": "low"}]}
